{"source": "paper PMC9974466", "about": "(Proceedings of the National Academy of Sciences of the …, 2023)", "molecules": {"B1": {"name": "pro[P1]PTH: mutant pro-hormone secreted by COS-7 cells expressing prepro[P1]PTH(1-84) and present in patients' plasma (protein, UniProt P01270 26-115, looked up, variant S1P)", "pro-form": "KSVKKRPVSEIQLMHNLGKHLNSMERVEWLRKKLQDVHNFVALGAPLAPRDAGSQRPRKKEDNVLVESHEKSLGEADKADVNVLTKAKSQ", "modifications": "pro-form", "notes": "mutant pro-hormone secreted by COS-7 cells expressing prepro[P1]PTH(1-84) and present in patients' plasma"}, "B2": {"name": "SVSEIQ … LMHNLGKHLNSMERVEWLRKKLQDVHNFVALGAPLAPRDAGSQRPRKKEDNVLVESHEKSLGEADKADVNVLTKAKSQ (protein, UniProt P01270 32-115, looked up)", "Parathyroid hormone": "SVSEIQLMHNLGKHLNSMERVEWLRKKLQDVHNFVALGAPLAPRDAGSQRPRKKEDNVLVESHEKSLGEADKADVNVLTKAKSQ", "modifications": "Parathyroid hormone", "notes": "Recombinant PTH(1-84) was from Chugai Pharmaceutical Co., Ltd"}}, "key": {"[1]": {"target": "T1, human PTHR1 (SGS-72 cells, SaOS-2 derived) (Homo sapiens, UniProt Q03431)", "T1 construct": "SGS-72 cells, i.e., human osteosarcoma SaOS-2 cells stably expressing the Glosensor cAMP reporter; endogenous in cells; host or cells: SGS-72 (human osteosarcoma SaOS-2-derived)", "T1 sequence (Q03431 27-593)": "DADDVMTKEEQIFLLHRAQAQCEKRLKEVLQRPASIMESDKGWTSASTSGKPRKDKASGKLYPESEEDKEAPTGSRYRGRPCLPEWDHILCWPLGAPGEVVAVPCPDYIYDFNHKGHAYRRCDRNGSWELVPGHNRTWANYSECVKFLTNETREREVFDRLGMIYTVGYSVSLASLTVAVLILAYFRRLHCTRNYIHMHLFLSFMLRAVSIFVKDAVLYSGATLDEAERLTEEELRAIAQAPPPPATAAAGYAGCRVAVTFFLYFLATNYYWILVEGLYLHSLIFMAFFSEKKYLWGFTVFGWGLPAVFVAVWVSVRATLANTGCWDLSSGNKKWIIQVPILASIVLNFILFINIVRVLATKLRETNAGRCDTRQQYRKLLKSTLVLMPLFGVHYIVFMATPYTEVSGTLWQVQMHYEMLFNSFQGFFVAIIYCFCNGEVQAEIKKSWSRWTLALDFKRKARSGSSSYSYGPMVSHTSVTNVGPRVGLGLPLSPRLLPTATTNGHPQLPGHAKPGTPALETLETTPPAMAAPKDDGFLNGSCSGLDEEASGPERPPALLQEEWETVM", "experiment": "PTH-stimulated cAMP formation in SGS-72 reporter cells (Glosensor)", "assay_type": "cell-based", "conditions": "synthetic peptides, mean ± SEM, n = 3 (Fig. 2B), read-out: EC50 for cAMP formation", "protocol": "(§1) SGS-72 cells, i.e., human osteosarcoma SaOS-2 cells stably expressing the Glosensor cAMP reporter, were maintained in modified McCoy’s 5A medium [15% FBS, 1% penicillin/streptomycin, and 1% nonessential amino acids, as described ([29])]. GP2.3 cells, i.e., HEK293 cells stably expressing the human PTHR1 and the Glosensor cAMP reporter, were maintained in DMEM (10% FBS, 1% penicillin/streptomycin), as described ([24]). Cells were seeded into 96‐well white plates (40,000 cells/100µL/well); 24 to 48 h after confluency, the wells were rinsed with 100 µL carbon dioxide-independent culture medium (CIDB; Life Technologies) containing 0.1% bovine serum albumin (BSA), which was then replaced with 90 µL of luciferin (0.5 mM in CIDB) for 15 min before adding 10 µL of increasing concentrations of PTH analogs diluted in CIDB or 10 µL of CIDB, and then measuring cAMP‐dependent luminescence at 2‐min intervals using a PerkinElmer Envision plate reader (PerkinElmer), as described ([24]). […] GP2.3 cells were also used for the evaluation of CM from transfected COS-7 cells; PTH(1-84) served as control.\nSGS-72 cells were used for assessing PTH-stimulated cAMP formation. 10 µL of increasing concentrations of [S1]PTH(−6 to +34) or [P1]PTH(−6 to +34) before and after incubation with furin were diluted in CIDB buffer."}, "human PTHR1": {"target": "T2, human PTHR1 (Homo sapiens, UniProt Q03431)", "T2 construct": "expressed in transfected cells; host or cells: GP2.3 (HEK293-derived)", "T2 sequence (Q03431 27-593)": "T1 sequence (Q03431 27-593)", "experiment": "PTH-stimulated cAMP formation in GP2.3 reporter cells (Glosensor)", "assay_type": "cell-based", "conditions": "GP2.3 cells; synthetic peptides; mean ± SEM, n = 3; maximum luminescence 20 to 23 min", "protocol": "as §1"}, "[2]": {"test_system": "anti-[P1]PTH(−6 to +3)^Biotin antibody", "experiment": "Epitope characterization ELISA with anti-[P1]PTH(−6 to +3)^Biotin capture antibody", "assay_type": "binding", "conditions": "anti-[P1]PTH(−6 to +3)^Biotin capture, anti-PTH(13-34) HRP detection; n = 2 to 4", "description": "For additional characterization of our anti-[P1]PTH(−6 to +3) antibody, we biotin-labeled this antibody for use as capture antibody (anti-[P1]PTH(−6 to +3)^Biotin antibody) in combination with the HRP-labeled detection antibody from the intact PTH assay (Immutopics) that is directed against PTH(13-34) (SI Appendix, Fig. S3).\n(§2) pro[P1]PTH(−6 to +3) was conjugated to SulfoLink coupling gel via the C-terminal cysteine (PIERCE) for affinity purification of the rabbit antibodies, which were then HRP-labeled using EZ-Link Plus Activated Peroxidase Kit (Thermo Fisher Scientific), following the manufacturer’s protocol. The anti-pro[P1]PTH(−6 to +3) antibody was also conjugated to biotin using EZ-LinkTM Sulfo-NHS-LC-Biotinylation Kit (Thermo Fisher Scientific), following the manufacturer’s protocol, except using 40-fold instead of 20-fold excess of biotin. After biotin coupling, 15% of rabbit serum were added to the biotinylated antibody [anti-pro[P1]PTH(−6 to +3)^Biotin].\n100 Defining the epitope of the antibody raised against [P1]PTH(-6 to +15) that was affinity purified with\n101 immobilized [P1]PTH(-6 to +3).\n102 The anti-[P1]PTH(-6 to +3) antibody was coupled to biotin (anti-[P1]PTH(-6 to +3)Biotin antibody) and\n103 used as capture antibody in combination with the detection anti-PTH(13-34) antibody provided in\n104 the intact PTH assay (Immutopics). Epitope of the affinity purified anti-[P1]PTH(-6 to +3)Biotin\n105 antibody was partially defined by using [P1]PTH(-6 to +34) and [S1]PTH(-6 to +34), as well as\n111 recognized by the anti-[P1]PTH(-6 to +3)Biotin antibody resides predominantly in the -6 to -4 region.\n(1 picture or pasted object on this page, not shown here)"}, "[3]": {"test_system": "anti-pro[P1]PTH^HRP antibody", "experiment": "pro[P1]PTH immunoassay with anti-pro[P1]PTH^HRP detection antibody", "assay_type": "binding", "description": "To allow quantification of pro[P1]PTH in CM and in plasma of our patients with the homozygous P1 mutation, we replaced the detection antibody in an intact PTH assay (Immutopics) with a horseradish peroxidase (HRP)-labeled antibody raised against pro[P1]PTH(−6 to +15), which was affinity purified with pro[P1]PTH(−6 to +3) (anti-pro[P1]PTH^HRP antibody) (Materials and Methods).\nas §2, with “+3)^Biotin]. […]” for “+3)^Biotin].”"}}, "note": "“Also recorded” adds a separate entry of the source. Ends that are not written are not given here.", "data": [{"molecule": "CC[C@H](C)[C@H](NC(=O)[C@H](CCC(=O)O)NC(=O)[C@H](CO)NC(=O)[C@@H](NC(=O)[C@@H]1CCCN1)C(C)C)C(=O)N[C@@H](CCC(N)=O)C(=O)N[C@@H](CC(C)C)C(=O)N[C@@H](CCSC)C(=O)N[C@@H](Cc1c[nH]cn1)C(=O)N[C@@H](CC(N)=O)C(=O)N[C@@H](CC(C)C)C(=O)NCC(=O)N[C@@H](CCCCN)C(=O)N[C@@H](Cc1c[nH]cn1)C(=O)N[C@@H](CC(C)C)C(=O)N[C@@H](CC(N)=O)C(=O)N[C@@H](CO)C(=O)N[C@@H](CCSC)C(=O)N[C@@H](CCC(=O)O)C(=O)N[C@@H](CCCNC(=N)N)C(=O)N[C@H](C(=O)N[C@@H](CCC(=O)O)C(=O)N[C@@H](Cc1c[nH]c2ccccc12)C(=O)N[C@@H](CC(C)C)C(=O)N[C@@H](CCCNC(=N)N)C(=O)N[C@@H](CCCCN)C(=O)N[C@@H](CCCCN)C(=O)N[C@@H](CC(C)C)C(=O)N[C@@H](CCC(N)=O)C(=O)N[C@@H](CC(=O)O)C(=O)N[C@H](C(=O)N[C@@H](Cc1c[nH]cn1)C(=O)N[C@@H](CC(N)=O)C(=O)N[C@@H](Cc1ccccc1)C(N)=O)C(C)C)C(C)C", "note": "[[P1]PTH(1-34)]", "values": [{"measurement": "EC50", "setting": "[1]", "value": "0.5 ± 0.3", "unit": "nM"}, {"measurement": "EC50", "setting": "human PTHR1", "value": "3.2 ± 0.9", "unit": "nM"}]}, {"molecule": "PTH(2-34): synthetic amino-terminally shortened peptide (VSEIQLMHNLGKHLNSMERVEWLRKKLQDVHNF-NH2; UniProt P01270 33-65, looked up, fragment)", "values": [{"measurement": "Detection / cross-reactivity (in words)", "setting": "[2]", "value": "only minimal cross-reactivity at very high concentrations"}]}, {"molecule": "PTH(3-34): synthetic amino-terminally shortened peptide (SEIQLMHNLGKHLNSMERVEWLRKKLQDVHNF-NH2; UniProt P01270 34-65, looked up, fragment)", "values": [{"measurement": "Detection / cross-reactivity (in words)", "setting": "[2]", "value": "not detected at all"}]}, {"molecule": "PTH(4-34): synthetic amino-terminally shortened peptide (EIQLMHNLGKHLNSMERVEWLRKKLQDVHNF-NH2; UniProt P01270 35-65, looked up, fragment)", "values": [{"measurement": "Detection / cross-reactivity (in words)", "setting": "[2]", "value": "not detected at all"}]}, {"molecule": "B1", "values": [{"measurement": "Half-maximal binding", "setting": "[2]", "value": "1,330 pg/mL"}, {"measurement": "Half maximum binding of the anti-pro[P1]PTH^HRP detection antibody", "setting": "[3]; capture anti-PTH(39-84), HRP detection, CM standard", "value": "1,032 pg/mL"}]}, {"molecule": "B2", "values": [{"measurement": "Detection / cross-reactivity in pro[P1]PTH assay", "setting": "[3]; vs. pro[P1]PTH, up to very high concentrations", "value": "barely detected; also recorded: minimal even at very high concentrations; also recorded: extremely low"}]}]}
